Results: publication PMC11845477, “Exploring the principles behind antibiotics with limited resistance” (Nature Communications, 2025)
Where two headings read alike, the source gives them in different places.

How the values were obtained:
[1] = test system: K. pneumoniae ATCC 10031 (SEN) and K. pneumoniae ATCC 700603 (MDR); assay: Adaptive laboratory evolution (ALE), relative MIC of evolved lines; format: cell-based, Klebsiella pneumoniae
Method in brief: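 Ten parallel populations per antibiotic–ancestor pair were evolved in MHB at 37 °C, starting near 50% growth-inhibiting drug. Every 72 h they were passaged into 0.5–2.5× increasing concentrations, keeping the highest-drug well with OD600 > 0.2.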

[2] = test system: A. baumannii ATCC 17978 (SEN) and A. baumannii ATCC BAA-1605 (MDR); assay: Frequency-of-resistance (FoR) assay, relative MIC of mutants; format: cell-based, Acinetobacter baumannii; settings: for MIC: Acinetobacter baumannii
Method in brief: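 First-step resistance is selected by exposing roughly 10^10 cells to each antibiotic on agar for 48 h at 37 °C. Ten colonies from the highest selective concentration then undergo MIC testing by OD600 in MHB, reported relative to the ancestral strain.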

[3] = KP-SEN (Klebsiella pneumoniae ATCC 10031), evolved line 1
[4] = KP-SEN (Klebsiella pneumoniae ATCC 10031), evolved line 3
[5] = KP-SEN (Klebsiella pneumoniae ATCC 10031), evolved line 9
[6] = KP-SEN (Klebsiella pneumoniae ATCC 10031), evolved line 10
[7] = KP-SEN, Klebsiella pneumoniae ATCC 10031, evolved line 7
[8] = Klebsiella pneumoniae ATCC 10031 (KP-SEN), evolved line 1
[9] = Klebsiella pneumoniae ATCC 10031 (KP-SEN), evolved line 4
[10] = Acinetobacter baumannii ATCC 17978 (AB-SEN), evolved line 1 versus ancestor
[11] = Acinetobacter baumannii ATCC 17978 (AB-SEN), evolved line 2 versus ancestor
[12] = Acinetobacter baumannii ATCC 17978 (AB-SEN), evolved line 3 versus ancestor
[13] = read-out: MIC of evolved line, Acinetobacter baumannii ATCC 17978 (AB-SEN), evolved line 1
[14] = read-out: MIC of evolved line, Acinetobacter baumannii ATCC 17978 (AB-SEN), evolved line 2
[15] = read-out: MIC of evolved line, Acinetobacter baumannii ATCC 17978 (AB-SEN), evolved line 3
[16] = KP-SEN (Klebsiella pneumoniae ATCC 10031), evolved line 2 adapted to the named antibiotic
[17] = KP-SEN (Klebsiella pneumoniae ATCC 10031), evolved line 6
[18] = KP-SEN (Klebsiella pneumoniae ATCC 10031), evolved line 6 adapted to the named antibiotic
[19] = KP-SEN (Klebsiella pneumoniae ATCC 10031), evolved line 8
[20] = KP-SEN, Klebsiella pneumoniae ATCC 10031, evolved line 1 versus ancestor
[21] = KP-SEN, Klebsiella pneumoniae ATCC 10031, evolved line 2 versus ancestor
[22] = KP-SEN, Klebsiella pneumoniae ATCC 10031, evolved line 4 versus ancestor
[23] = KP-SEN, Klebsiella pneumoniae ATCC 10031, evolved line 5 versus ancestor
[24] = KP-SEN, Klebsiella pneumoniae ATCC 10031, evolved line 6 versus ancestor
[25] = KP-SEN, Klebsiella pneumoniae ATCC 10031, evolved line 7 versus ancestor
[26] = KP-SEN, Klebsiella pneumoniae ATCC 10031, evolved line 8 versus ancestor
[27] = KP-SEN, Klebsiella pneumoniae ATCC 10031, evolved line 9 versus ancestor
[28] = KP-SEN, Klebsiella pneumoniae ATCC 10031, evolved line 5

CN(C)[C@@H]1C(O)=C(C(N)=O)C(=O)[C@@]2(O)C(O)=C3C(=O)c4c(O)c(NC(=O)CN5CCCC5)cc(F)c4C[C@H]3C[C@@H]12 [Eravacycline]
256: Relative MIC ([1]; KP-SEN (ATCC 10031), evolved line 3, evolved vs ancestor) | Relative MIC ([1]; KP-SEN (ATCC 10031), evolved line 9, evolved vs ancestor) | Relative MIC ([1]; Klebsiella pneumoniae ATCC 10031 (KP-SEN), evolved line 3) | Relative MIC ([1]; Klebsiella pneumoniae ATCC 10031 (KP-SEN), evolved line 9)
0.5 µg/mL: MIC [2, 13] | MIC [2, 15]
4: Relative MIC ([2]; Acinetobacter baumannii ATCC BAA 1605 (AB-MDR), evolved line 1 versus ancestor) | Relative MIC ([2]; Acinetobacter baumannii ATCC BAA 1605 (AB-MDR), evolved line 2 versus ancestor)
16 µg/mL: MIC ([2]; read-out: MIC of evolved line, Acinetobacter baumannii ATCC BAA 1605 (AB-MDR), evolved line 3)
0.9031: Relative MIC (log10) ([1]; KP-MDR (Klebsiella pneumoniae ATCC 700603), evolved line 1 adapted to the named antibiotic) | Relative MIC (log10) ([1]; KP-MDR (Klebsiella pneumoniae ATCC 700603), evolved line 4 adapted to the named antibiotic) | Relative MIC (log10) ([1]; KP-MDR (Klebsiella pneumoniae ATCC 700603), evolved line 9 adapted to the named antibiotic)
2.408 log10: Relative MIC (log10) [1, 4] | Relative MIC (log10) [1, 5]
2.709 log10: Relative MIC (log10) [1, 3] | Relative MIC (log10) [1, 6]
1.204: Relative MIC (log10) ([1]; KP-MDR (Klebsiella pneumoniae ATCC 700603), evolved line 3 adapted to the named antibiotic) | Relative MIC (log10) ([1]; KP-MDR (Klebsiella pneumoniae ATCC 700603), evolved line 8 adapted to the named antibiotic)
16: Relative MIC ([1]; KP-MDR (ATCC 700603), evolved line 3, MIC of evolved line / MIC of ancestor) | Relative MIC ([1]; KP-MDR (ATCC 700603), evolved line 8, MIC of evolved line / MIC of ancestor) | Relative MIC ([1]; Klebsiella pneumoniae ATCC 700603 (KP-MDR), evolved line 3) | Relative MIC ([1]; Klebsiella pneumoniae ATCC 700603 (KP-MDR), evolved line 8) | Relative MIC [2, 11]
8 µg/mL: MIC ([2]; read-out: MIC of evolved line, Acinetobacter baumannii ATCC BAA 1605 (AB-MDR), evolved line 1) | MIC ([2]; read-out: MIC of evolved line, Acinetobacter baumannii ATCC BAA 1605 (AB-MDR), evolved line 2)
64: Relative MIC ([1]; KP-SEN (ATCC 10031), evolved line 4, evolved vs ancestor) | Relative MIC ([1]; KP-SEN (ATCC 10031), evolved line 7, evolved vs ancestor) | Relative MIC [1, 9] | Relative MIC ([1]; Klebsiella pneumoniae ATCC 10031 (KP-SEN), evolved line 7)
1 µg/mL: MIC [2, 14]
1.806 log10: Relative MIC (log10) [1, 7]
512: Relative MIC ([1]; KP-SEN (ATCC 10031), evolved line 1, evolved vs ancestor) | Relative MIC ([1]; KP-SEN (ATCC 10031), evolved line 10, evolved vs ancestor) | Relative MIC [1, 8] | Relative MIC ([1]; Klebsiella pneumoniae ATCC 10031 (KP-SEN), evolved line 10)
8: Relative MIC ([1]; KP-MDR (ATCC 700603), evolved line 1, MIC of evolved line / MIC of ancestor) | Relative MIC ([1]; KP-MDR (ATCC 700603), evolved line 2, MIC of evolved line / MIC of ancestor) | Relative MIC ([1]; KP-MDR (ATCC 700603), evolved line 4, MIC of evolved line / MIC of ancestor) | Relative MIC ([1]; KP-MDR (ATCC 700603), evolved line 5, MIC of evolved line / MIC of ancestor) | Relative MIC ([1]; KP-MDR (ATCC 700603), evolved line 6, MIC of evolved line / MIC of ancestor) | Relative MIC ([1]; KP-MDR (ATCC 700603), evolved line 7, MIC of evolved line / MIC of ancestor) | Relative MIC ([1]; KP-MDR (ATCC 700603), evolved line 9, MIC of evolved line / MIC of ancestor) | Relative MIC ([1]; KP-MDR (ATCC 700603), evolved line 10, MIC of evolved line / MIC of ancestor) | Relative MIC ([1]; Klebsiella pneumoniae ATCC 700603 (KP-MDR), evolved line 1) | Relative MIC ([1]; Klebsiella pneumoniae ATCC 700603 (KP-MDR), evolved line 2) | Relative MIC ([1]; Klebsiella pneumoniae ATCC 700603 (KP-MDR), evolved line 4) | Relative MIC ([1]; Klebsiella pneumoniae ATCC 700603 (KP-MDR), evolved line 5) | Relative MIC ([1]; Klebsiella pneumoniae ATCC 700603 (KP-MDR), evolved line 6) | Relative MIC ([1]; Klebsiella pneumoniae ATCC 700603 (KP-MDR), evolved line 7) | Relative MIC ([1]; Klebsiella pneumoniae ATCC 700603 (KP-MDR), evolved line 9) | Relative MIC ([1]; Klebsiella pneumoniae ATCC 700603 (KP-MDR), evolved line 10) | Relative MIC [2, 10] | Relative MIC [2, 12] | Relative MIC ([2]; Acinetobacter baumannii ATCC BAA 1605 (AB-MDR), evolved line 3 versus ancestor)

CNC(C)C1CCC(N)C(OC2C(N)CC(N)C(OC3OCC(C)(O)C(NC)C3O)C2O)O1 (stereo not shown) [Gentamicin]
1.806: Relative MIC (log10) ([1]; KP-SEN (Klebsiella pneumoniae ATCC 10031), evolved line 4 adapted to the named antibiotic) | Relative MIC (log10) ([1]; KP-SEN (Klebsiella pneumoniae ATCC 10031), evolved line 5 adapted to the named antibiotic) | Relative MIC (log10) [1, 18]
32 µg/mL: MIC [2, 15]
16: Relative MIC [2, 11]
16 µg/mL: MIC [2, 13]
32: Relative MIC [2, 10]
8 µg/mL: MIC [2, 14]
2.107: Relative MIC (log10) [1, 16] | Relative MIC (log10) ([1]; KP-SEN (Klebsiella pneumoniae ATCC 10031), evolved line 8 adapted to the named antibiotic)
128: Relative MIC [1, 19] | Relative MIC [1, 5] | Relative MIC [1, 6] | Relative MIC [1, 21] | Relative MIC [1, 26] | Relative MIC [1, 27] | Relative MIC ([1]; KP-SEN, Klebsiella pneumoniae ATCC 10031, evolved line 10 versus ancestor) | Relative MIC ([1]; Klebsiella pneumoniae ATCC 10031 (KP-SEN), evolved line 2)
64: Relative MIC [1, 17] | Relative MIC [1, 20] | Relative MIC [1, 22] | Relative MIC [1, 23] | Relative MIC [1, 24] | Relative MIC [1, 25] | Relative MIC [1, 28] | Relative MIC [1, 7] | Relative MIC [1, 8] | Relative MIC [1, 9] | Relative MIC [2, 12]

O=c1ccc2ncc(=O)n3c2n1C[C@H]3CN1CCC(NCc2cc3c(cn2)OCCC3)CC1 [Gepotidacin]
1024: Relative MIC [1, 4] | Relative MIC ([1]; KP-SEN (Klebsiella pneumoniae ATCC 10031), evolved line 4) | Relative MIC [1, 19] | Relative MIC [1, 5] | Relative MIC ([1]; KP-SEN, Klebsiella pneumoniae ATCC 10031, evolved line 3 versus ancestor) | Relative MIC [1, 22] | Relative MIC [1, 23] | Relative MIC [1, 26] | Relative MIC [1, 27] | Relative MIC [1, 28]
16: Relative MIC [2, 10] | Relative MIC [2, 12]
3.311: Relative MIC (log10) [1, 16] | Relative MIC (log10) [1, 18] | Relative MIC (log10) ([1]; KP-SEN (Klebsiella pneumoniae ATCC 10031), evolved line 7 adapted to the named antibiotic)
8 µg/mL: MIC [2, 14]
3.0103: Relative MIC (log10) ([1]; KP-SEN (Klebsiella pneumoniae ATCC 10031), evolved line 3 adapted to the named antibiotic)
4: Relative MIC [2, 11]
2048: Relative MIC [1, 3] | Relative MIC ([1]; KP-SEN (Klebsiella pneumoniae ATCC 10031), evolved line 2) | Relative MIC [1, 17] | Relative MIC [1, 20] | Relative MIC [1, 21] | Relative MIC [1, 24] | Relative MIC [1, 25] | Relative MIC [1, 7]
